Experiments:
oral peroxidase (OPO) = test: Oral peroxidase (OPO) activity in saliva, NBS-SCN assay; type: biochemical, human; settings: for OPO activity in presence of aldehydes present in TS: 80 μM acrolein, 20 μM crotonaldehyde (FIG. 11)
lymphocytes [1] = test: Western immunoblotting analysis of lymphocyte protein carbonylation; type: cell-based, human
Source text: Western immunoblotting analysis of protein carbonylation: Salivary proteins were separated by SDS-PAGE using a 10% gel and electro-blotted onto nitrocellulose membranes, as previously described (14). The Oxyblot Kit (Intergen Co, Purchase N.Y.) was used with anti-dinitrophenyhydrazine (DNPH) antibodies to label carbonylated proteins. Protein carbonylation levels were then visualized by reacting labelled blots with a secondary HRP-conjugated anti-rabbit antibody followed by ECL detection of secondarily labelled proteins, as previously described (14).
(§1) Lymphocyte isolation: Blood from 10 consenting, healthy, non-smoking subjects, 5 males and 5 females ranging from 18-55 years of age, was drawn into EDTA-containing vacutainers. Lymphocytes were isolated by Ficoll-Hypaque (Sigma) gradient centrifugation according to the manufacturer's instructions and lymphocytes were suspended at 10^7 cells/ml PBS (Beit-Ha'emek Industries, Israel), and used immediately in experiments.
Treatment of lymphocytes with TS in the presence of saliva: Exposure of lymphocytes to TS was carried out by attaching a Time cigarette (capable of removing particles>[…] in diameter) in which the filter tip was removed to a Cambridge filter which was combined with a vacuum system to aspirate gas-phase TS inside sealed 250 ml flasks containing lymphocytes suspended in 12-15 ml PBS, as previously described (14, 15). A reproducible vacuum was created in the flask and upon application of vacuum for 5 s, 80-100 ml of TS from the lit cigarette was drawn into the flask. […] Saliva treatment of lymphocytes was performed by suspending these in PBS supplemented with 30% (v/v) saliva. Following treatment with the TS of 0.5 cigarettes, flasks were incubated at 37° C. for 20 min in a metabolic shaker and subjected to a further 4 treatments with TS, as described above.
Western immunoblotting analysis of lymphocyte protein carbonylation: Lymphocytes were washed twice in PBS following treatment by centrifugation at 2,000 rpm for 2 minutes to remove saliva and other components of the incubation medium. Lymphocytes were then centrifuged at 14,000 rpm for 1 minute and lysed by sonication for 10 seconds in lysis buffer containing 20 mM Tris pH 7.4, 1 mM EGTA, 1 mM PMSF, 50 μM NaVO4 and 50 mM NaF. Lysates were centrifuged at 14,000 rpm for 1 minute and supernatants were harvested for analysis. Carbonylation analysis was performed as described above.

lymphocytes [2] = test: Lymphocyte survival, Trypan Blue exclusion assay; type: cell-based, human; settings: for % survival of TS + saliva-treated lymphocytes, Mean: 1 mM GSH; for death rates at 80 minutes / lymphocyte survival rates after 20 minutes: both, human
Method: Saliva collection: Saliva was collected from healthy subjects, 3 males and 3 females ranging from 21-47 years of age, under non-stimulatory conditions in a quiet room during the morning between 8 am and noon. Saliva collection was performed at least 1 h after eating by spitting into a recipient for 10 minutes, as previously described (43). Following collection, saliva was immediately centrifuged at 800×g for 10 min at 4° C. to remove cells and cell debris and the resulting supernatant was used for biochemical analyses.
as §1
A reproducible vacuum was created in the flask and upon application of vacuum for 5 s, 80-100 ml of TS from the lit cigarette was drawn into the flask. […] Saliva treatment of lymphocytes was performed by suspending these in PBS supplemented with 30% (v/v) saliva. Following treatment with the TS of 0.5 cigarettes, flasks were incubated at 37° C. for 20 min in a metabolic shaker and subjected to a further 4 treatments with TS, as described above.
Measurement of lymphocyte survival: Lymphocyte viability was assessed by Trypan Blue exclusion assay.

MPO = biological target: T1, MPO (Homo sapiens, UniProt P05164); test: Control MPO activity (commercial MPO) in presence of dapsone; type: biochemical; settings: 150 μM dapsone
T1 construct: purchased
T1 sequence (P05164 49-745): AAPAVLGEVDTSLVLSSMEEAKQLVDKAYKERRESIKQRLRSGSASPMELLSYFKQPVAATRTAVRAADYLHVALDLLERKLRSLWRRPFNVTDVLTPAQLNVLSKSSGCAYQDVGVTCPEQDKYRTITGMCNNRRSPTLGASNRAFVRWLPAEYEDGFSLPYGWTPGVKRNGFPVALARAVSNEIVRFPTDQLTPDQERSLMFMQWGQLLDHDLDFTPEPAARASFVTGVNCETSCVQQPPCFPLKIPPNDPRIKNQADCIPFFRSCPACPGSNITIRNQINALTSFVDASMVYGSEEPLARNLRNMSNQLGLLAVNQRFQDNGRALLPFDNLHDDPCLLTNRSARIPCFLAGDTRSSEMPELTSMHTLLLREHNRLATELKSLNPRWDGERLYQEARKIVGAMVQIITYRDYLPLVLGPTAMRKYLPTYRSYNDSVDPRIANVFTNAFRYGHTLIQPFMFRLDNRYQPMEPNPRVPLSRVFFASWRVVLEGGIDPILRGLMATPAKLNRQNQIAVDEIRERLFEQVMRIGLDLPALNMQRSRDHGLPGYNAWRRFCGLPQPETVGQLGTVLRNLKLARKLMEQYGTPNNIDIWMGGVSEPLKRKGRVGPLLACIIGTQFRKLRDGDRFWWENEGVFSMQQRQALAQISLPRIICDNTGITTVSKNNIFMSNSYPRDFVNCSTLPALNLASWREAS
Method: FIG. 7 is a data plot depicting the effect of increasing concentrations of dapsone (4-aminophenylsulfone) on OPO activity in TS-treated saliva. Abbreviations: NO.1, NO.2, NO.3, NO4 and NO.5 correspond to saliva from 5 different subjects and plasma corresponds to commercial MPO.
Analysis of OPO activity: OPO activity was measured according to the 2-nitrobenzoic-thiocyanate (NBS-SCN) assay, as previously described (20). Briefly, DTNB is reduced to NBS by addition of β-mercaptoethanol and decreases in NBS concentration by reaction with OSCN^−, a product of OPO, are monitored spectrophotometrically by measuring absorbance at 412 nm at pH 5.6 (18). One unit of enzyme activity was defined as the activity required to cleave 1 μmol of NBS/min at 22° C., using a molar extinction coefficient of 12,800 (20).
Thus, in order to determine which of the MPO or SPO activity components of OPO activity are lost as a result of exposure to TS, OPO activity in TS-treated saliva was measured in the presence of increasing concentrations of […] dapsone.

[3] = TS + saliva, 1 mM agent, 80 minutes (FIG. 19)

[Cl][Fe]([Cl])[Cl] [FeCl3]
inhibition of OPO activity on exposure of saliva (oral peroxidase (OPO); 1 mM ascorbate or 100 μM FeCl3, 2 h (FIG. 10)): did not inhibit OPO activity

N[C@@H](CCC(=O)N[C@@H](CS)C(=O)NCC(=O)O)C(=O)O [GSH, L-γ-glutamyl-1-cysteine-glycine]
protection assessed by lymphocyte protein carbonylation levels (lymphocytes [1]; TS + saliva, 1 mM antioxidant, 20 minutes (FIG. 20)): unique protection
protein carbonylation levels in aldehyde-treated lymphocytes (lymphocytes [1]; aldehydes + 1 mM GSH, 20 min (FIG. 21)): protection
effect on death rate of lymphocytes exposed to TS and saliva (lymphocytes [2]): partially prevented
% survival of TS + saliva-treated lymphocytes, Mean (lymphocytes [2]; 20 minute treatment): 90.6%
% survival of TS + saliva-treated lymphocytes, Mean (lymphocytes [2]; 80 minute treatment): 28.8%
lymphocyte survival rate (lymphocytes [2]; GSH added in the presence of 20 μM crotonaldehyde, 20 minutes): 82.3%
lymphocyte survival rate (lymphocytes [2]; GSH added in the presence of 20 μM crotonaldehyde, 80 minutes): 81.3%
lymphocyte survival rate (lymphocytes [2]; GSH added in the presence of 80 μM acrolein, 20 minutes): 93.3%
lymphocyte survival rate (lymphocytes [2]; GSH added in the presence of 80 μM acrolein, 80 minutes): 87.4%
lymphocyte survival rate (lymphocytes [2]; GSH added in the presence of 2 mM acetaldehyde, 20 minutes): 93.3%
lymphocyte survival rate (lymphocytes [2]; GSH added in the presence of 2 mM acetaldehyde, 80 minutes): 93.6%
lymphocyte survival rate (lymphocytes [2]; TS + saliva, 1 mM agent, 20 minutes (FIG. 19)): 93.4%
lymphocyte survival rate (lymphocytes [2]; [3]): 24.3%
loss of OPO activity in TS-treated saliva in the presence or absence of agent (oral peroxidase (OPO); 1 mM agent (FIG. 9)): similar

N#C[S-].[K+] [KSCN, potassium thiocyanate]
protection against TS-induced loss of OPO activity (oral peroxidase (OPO)): significant protection against loss of OPO activity

CC(=O)N[C@@H](CS)C(=O)O [NAC, N-acetylcysteine]
effect on death rate of lymphocytes exposed to TS and saliva (lymphocytes [2]): did not alter the death rate

C/C1=C2/[N-][C@H]([C@H](CC(N)=O)[C@@]2(C)CCC(=O)NC[C@@H](C)OP(=O)([O-])O[C@H]2[C@@H](O)[C@@H](n3cnc4cc(C)c(C)cc43)O[C@@H]2CO)[C@]2(C)N=C(/C(C)=C3N=C(/C=C4N=C1[C@@H](CCC(N)=O)C\4(C)C)[C@@H](CCC(N)=O)[C@]\3(C)CC(N)=O)[C@@H](CCC(N)=O)[C@]2(C)CC(N)=O.[Co+3].[OH-] [OH—CO, hydroxocobalamin]
prevention of KCN-associated loss of OPO activity (oral peroxidase (OPO); 1 mM OH—CO, saliva treated 2 min with 1 mM KCN (FIG. 15)): completely prevent
prevention of loss of OPO activity in TS-treated saliva (oral peroxidase (OPO); increasing amounts of OH—CO (0.5, 1, 2 mM, FIG. 14), 40 min after treatment with TS): prevent, to a significant extent, the loss of OPO activity
prevention of TS- and KCN-associated loss of OPO activity (oral peroxidase (OPO); preincubation of saliva with OH—CO): could prevent both TS- and KCN-associated loss of OPO activity

CC=O [acetaldehyde]
death rates at 80 minutes (lymphocytes [2]): 92.7%

C=CC=O [acrolein]
lymphocyte protein carbonylation levels (lymphocytes [1]; 80 μM acrolein + saliva vs acrolein alone, 20 min (FIG. 22)): did not enhance carbonylation levels
lymphocyte survival rate (lymphocytes [2]; acrolein with saliva (second of the two 'respectively' values, order presumed)): 66.4%
lymphocyte survival rate (lymphocytes [2]; acrolein without saliva (first of the two 'respectively' values, order presumed)): 57.9%
death rates at 80 minutes (lymphocytes [2]): 57.3%
lymphocyte survival rates after 20 minutes (lymphocytes [2]): 63.3%
OPO activity in presence of aldehydes present in TS (oral peroxidase (OPO)): unaffected

O=C1O[C@H]([C@@H](O)CO)C(O)=C1O [ascorbate]
lymphocyte survival rate (lymphocytes [2]; ascorbate (1 mM) added to PBS containing iron as FeCl3 (90 μM), no saliva (FIG. 23, Column 8)): 77%
lymphocyte survival rate (lymphocytes [2]; ascorbate (1 mM) added to saliva-containing medium without TS, 20 min (FIG. 23, column 6)): 78%

C/C=C/C=O [crotonaldehyde]
death rates at 80 minutes (lymphocytes [2]): 75.3%
lymphocyte survival rates after 20 minutes (lymphocytes [2]): 80.3%
OPO activity in presence of aldehydes present in TS (oral peroxidase (OPO)): unaffected

Nc1ccc(S(=O)(=O)c2ccc(N)cc2)cc1 [dapsone, 4-aminophenylsulfone]
control MPO activity (MPO): unaffected
Loss of OPO activity (oral peroxidase (OPO); 150 μM dapsone, TS-treated saliva (FIG. 7)): 60-85%
loss of OPO activity in the presence or absence of agent (oral peroxidase (OPO); 150 μM dapsone, TS-treated saliva containing ~40% MPO (FIG. 8)): similar

CC(=O)N(O)CCCCCNC(=O)CCC(=O)N(O)CCCCCNC(=O)CCC(=O)N(O)CCCCCN [deferoxamine]
lymphocyte survival rate (lymphocytes [2]; [3]): 23.7%

O=c1[nH]c(=O)c2[nH]c(=O)[nH]c2[nH]1 [uric acid]
lymphocyte protein carbonylation levels (lymphocytes [1]; uric acid added to suspension medium instead of saliva, 10 or 100 μM, no TS (FIG. 18)): reduced carbonylation levels

— patent US20100108086A1, “TOBACCO AND TOBACCO PACKAGING MATERIAL FOR PREVENTING OR REDUCING TOBACCO-ASSOCIATED INJURY IN THE AERODIGESTIVE TRACT OF A SUBJECT” (Technion Research & Development Foundation Ltd, priority 2007, published 2010)
